Experimental data as given in US20160340683A1, “NANOCARRIER BASED PLANT TRANSFECTION AND TRANSDUCTION” (HER MAJESTY THE QUEEN IN RIGHT OF CANADA AS REPRESENTED BY …, priority 2007, published 2016).
Entries after “also recorded” stand apart in the source; their conditions may differ. fluorescein = fluorescein label at the N-terminus

Tests used:
Triticale microspores = test: DNA-protein co-delivery in microspores, GUS histochemical assay of embryos; assay type: cell-based; details: 2 months after transfection
Experimental: Triticale tillers for microspore isolation were kept in the refrigerator (4° C.) for 3 weeks with their bases in distilled water and their heads wrapped in aluminum foil. After 3 weeks±3 days, the mid to late uninucleate microspore stage was verified from a median floret using acetocarmine staining prior to extraction. Isolated microspore was carried in Triticale as published in Eudes and Amundsen (2005) for obtaining purified microspore suspension adjusted to 2.5×10^5 cells per ml of NPB99 medium.
The plasmid (pAct-1 GUS, ˜7.2 kb) was linearized with PstI restriction enzyme and DNA was purified by PCR product purification kit (QIAquick, Qiagen, USA). The GUS DNA was delivered following 7 different treatments (T). […]

[1] = tested on: isolated microspores of Triticale (variety Sunray); test: CPP delivery of GUS enzyme into isolated microspores, GUS staining; assay type: cell-based; details: GUS enzyme cargo:CPP 1:4, 1 hour at 37° C., three repeats
Experimental: Triticale line Sunray grown in a growth cabinet with a photoperiod of 19 h day (intensity 300 μE m-2 s-1), and temperature 18-15° C. (day-night) with a relative humidity at about 70% was used as the donor plant material. The plants were fertilized every 2 weeks (20-20-20, 200 ppm) and treated with 2.5 ml I-1 Tilt™ (propiconazole, Syngenta) during the tillering stage and Intercept™ (0.004 g per litre of soil, Imidacloprid, Bayer) once sufficient root development was established. The first 10 tillers from each pot were harvested when the spike was at 3-4 cm, depending on the crop, from emergence from the boot. These tillers (to be used for microspore isolation) were subjected to pre-treatment in a refrigerator (4° C.) for 21 days with their bases in distilled water and their heads wrapped in aluminum foil. After 21±3 days of pre-treatment, the spikes were excised from their tillers and after an evaluation of their general appearance, only the most homogenous spikes were used. After confirming microspores at mid to bi-nucleate stage from a median floret, using acetocarmine staining, the tillers were processed for extraction.
Awns were removed with scissors in a laminar flow hood. Eight-fourteen spikes were used for microspore isolation. They were sterilized with 10% bleach (5.25% sodium hypochlorite) for 3 min followed by rinsing in sterile double distilled water four times of 1 min each with constant agitation. Outer glumes were removed and florets from all the spikes were aseptically dissected and transferred to a sterile and refrigerated 110 ml Warring blender cup (VWR international, #58983-093) containing 50 ml filter sterilized extraction buffer at 4° C. Florets were then blended twice for 7 s at low speed (18000 rpm). The slurry was then poured through a 1 mm sieve followed by pouring through a 100 μm sterile mesh (VWR International, #CA21008-950) into two 50 ml centrifuge tubes (25 ml each). The blender cup was rinsed with 50 ml extraction buffer at 4° C. and poured through the 100 μm mesh and was added to the first aliquot in the 50 ml tubes. The cells were then pelleted by centrifugation (100×g for 5 min at 4° C.) using a swinging bucket rotor. After pouring off the supernatant, the microspore-containing pellets were pooled together in one 50 ml tube and re-suspended in 50 ml cold extraction buffer. The cells were pelleted again with centrifugation (100×g for 5 min at 4° C.), the supernatant poured off and the pellet was transferred to a 15 ml tube. After re-suspending the pellet in CIMC Wash Buffer supplemented with 10 microM SS-31 peptide, it was subjected to wash and centrifugation using the above conditions. The supernatant was removed and the pellet was re-suspended in CIMC Wash buffer and centrifugation was repeated as above. The pellet was then suspended in 7 mL of 20% maltose at 4° C., layered with 1 mL of CIMC wash buffer and was centrifuged at 100 g for 13 min at 4° C. A band of microspores formed at the interface was collected in a new 15 ml tube. The cells were diluted with CIMC wash solution and subsequently collected by centrifugation at 150 g for 5 min. The supernatant was removed and the cells were finally suspended in a total volume of 1.4 ml of appropriate solution. After counting the cells using a haemocytometer, aliquots of 100,000 cells in 200 μl volume were prepared in 2 ml microcentrifuge tubes to be ready for transduction.
Peptide stock solutions were made in water at 1 μg/μl concentration. CPP (Nanocarrier) and GUS enzyme (cargo) were first prepared in separate microcentrifuge tubes. A total of 4 μg of CPP was prepared in sterile water to a final volume of 100 μl. Similarly, 1 μg of GUS enzyme was added to sterile water to a final volume of 100 μl. The contents of the two tubes were mixed together giving a ratio of 1:4 protein cargo:CPP. The complex was incubated for 30 min at room temperature (RT). Chariot (PAP1) protein delivering reagent was used as a positive control in the experiments. […]

isolated microspores = test: Uptake of fluoresceinated Tat by isolated microspores; assay type: cell-based; details: no permeabilization
Experimental: However, permeabilization is not necessary for all cell types. FIG. 2 illustrates the uptake of fluoresceinated Tat by isolated microspores.
Isolated microspores were prepared as described by Amundsen and Eudes, 2005.

immature embryos = test: Translocation of fluoresceinated CPPs in zygotic embryos, fluorescence microscopy; assay type: cell-based, Triticale cv AC Alta; details: for Fluorescence under fluorescence microscope, overall comparison: mature and immature embryos, with or without permeabilization
Experimental: The embryos were isolated from spikes two weeks post-anthesis (scutellum diameter 1-2 mm). The immature seeds were surface sterilized with 70% ethanol for 30 s followed by treatment with 10% hypochlorite (Chlorex) and a drop of Tween 20, 3 min. Four washings of 1 min each were given with sterile water. The embryos were hand dissected under sterile conditions. Isolated embryos were placed on GEM medium (Eudes et al, 2003) for 24 h in dark at room temperature prior to CPP translocation studies.
Isolated and sterilized embryos (20-25) were imbibed in total volume of 420 μl permeabilization buffer (15 mM sodium chloride, 1.5 mM sodium citrate, pH 7.1) containing cellular permeabilization agent toluene/ethanol (1:4) in 1:20 ratio with permeabilization buffer. To this 2.1 μl of 1 mM fluoresceinated CPP was added to give a final concentration of 5 μM. In negative controls, the embryos were treated with FITC-dextran sulphate or M-Tat. The embryos were incubated in the permeabilization mix for 1 h in dark at room temperature, followed by two washings with permeabilization buffer. The embryos were then treated with trypsin:EDTA (0.25% solution, Sigma-Aldrich) in 1:2 ratio with permeabilization buffer for 5 min at room temperature to remove free peptide molecules. Embryos were washed two times with permeabilization buffer and subjected either for fluorescence microscopy or spectrofluorimetric analysis.

[2] = tested on: scutellum and somatic embryos of triticale; test: CPP delivery of mCherry protein, confocal microscopy; assay type: cell-based; details: mCherry 1 μM with 60 μM CPP, overnight at RT
Text: The fluorescent mCherry protein was chosen as the protein, while scutellum (dissected out of immature caryopses) and isolated microspore culture-derived somatic embryos of triticale were used as choice of tissue. Both scutellum and somatic embryos are amenable to tissue culture and can undergo somatic embryogenesis to regenerate green plants providing a direct means to obtain modified plants following a biocompatible CPP induced transduction. Scutellum is representative of a diploid tissue while microspore culture derived somatic embryos is a haploid tissue.
The protein:CPP complex was prepared by individually mixing mCherry protein (1 μM) with 60 μM of the 3 CPPs. Both scutellum and somatic embryos of triticale were treated with these different complex formulations overnight at RT. […] The red fluorescent signal was detected by confocal microscopy within both scutellum and somatic embryo cells.

[3] = in the presence of cellular permeabilizing agent (toluene)
[4] = without cellular permeabilizing agent

## RKKRRQRRRRKKRRQRRR (TAT2) [18 amino acid dimer of the PTD of HIV Tat, reference compound]
Triticale microspores
  Highest numbers of embryos that showed GUS: 25.8%
[1]
  Average Transduction Efficiency: 17.50%

## FI-RKKRRQRRR-amide (fluorescein-RKKRRQRRR-NH2) [TAT-PTD]
Isolated microspores
  Uptake of fluoresceinated peptide by isolated microspores (FIG. 2): can penetrate into cells
Immature embryos; [3]
  Uptake seen by fluorescence microscopy (FIG. 1): most significant uptake; also recorded: distinct layer of accumulation in the scutellum and localized accumulation in the germ area
Immature embryos; [4]
  Uptake seen by fluorescence microscopy (FIG. 1): some fluorescence

## RRIRRRLRRRPKPRRRRRRR [CPP17]
[1]
  Average Transduction Efficiency: 46.54%
[2]
  Delivery of mCherry inside the cells, red fluorescent signal: able to interact noncovalently with mCherry, subsequently delivering it inside the cells

## RRRRRRRRHLRR [CPP34]
[1]
  Average Transduction Efficiency: 47.13%
[2]
  Delivery of mCherry inside the cells, red fluorescent signal: able to interact noncovalently with mCherry, subsequently delivering it inside the cells

## FI-LLIILRRRIRKQAHAHSK-amide (fluorescein-LLIILRRRIRKQAHAHSK-NH2) [pVEC]
Immature embryos
  Fluorescence under fluorescence microscope, overall comparison: least uptake

## RRRGRRRRRRRRQRQQRRQEGNRRR [CPP5]
[1]
  Average Transduction Efficiency: 5.88%

## RLKRRRRRRRKVSRR [CPP33]
[1]
  Average Transduction Efficiency: 15.67%

## RRRRWRHRCATKTAATTLRRRRRRRRGRR [CPP29]
[1]
  Average Transduction Efficiency: 22.25%

## RKRKEENTGRRRRRRRERKRR [CPP22]
[1]
  Average Transduction Efficiency: 1.94%

## RRRRRRRRRRKRGGRR [CPP14]
[1]
  Average Transduction Efficiency: 0%

## RVRSSRRAAEGRRRRRRREKR [CPP37]
[1]
  Average Transduction Efficiency: 1.94%

## RRRRRRRRHGRR [CPP24]
[1]
  Average Transduction Efficiency: 18.77%

## RRRRARGKRCWLRRRRRR [CPP49]
[1]
  Average Transduction Efficiency: 11.89%

## KAKKNRSHIGKLKMTKTSGRKRSR [CPP21]
[1]
  Average Transduction Efficiency: 0%

## RRRGIKPNAKRRRRRRRR [CPP23]
[1]
  Average Transduction Efficiency: 0%

## RRGWRWRSAPRGGSRRRRRRRR [CPP12]
[1]
  Average Transduction Efficiency: 5.25%

## KEKKKERRGVRDKERDK [CPP53]
[1]
  Average Transduction Efficiency: 0%

## RKEKKRIKQRKAFIMAEKKKRK [CPP13]
[1]
  Average Transduction Efficiency: 0%

## RRRRCTRRRTRSRRRPRR [CPP3]
[1]
  Average Transduction Efficiency: 57.63%
[2]
  Delivery of mCherry inside the cells, red fluorescent signal: able to interact noncovalently with mCherry, subsequently delivering it inside the cells

## RLRRLLLPLRRRRRLRQRRR [CPP25]
[1]
  Average Transduction Efficiency: 8.7%

## Dextran Sulphate
Immature embryos; [3]
  Uptake seen by fluorescence microscopy (FIG. 1): some fluorescence
Immature embryos
  Fluorescence under fluorescence microscope, overall comparison: none or very weak fluorescence
Immature embryos; [4]
  Uptake seen by fluorescence microscopy (FIG. 1): did not demonstrate any significant uptake
